# Entries after “also recorded” stand apart in the source; their conditions may differ.
# Experiments:
# C3H mice [1] = assay: Toxicity experiments in C3H mice; type: in vivo, mouse; details: 150 mg/kg, 75 mg/kg and 5 mg/kg; 120 days following the injections
# Procedure: Having seen no adverse effects of the chemicals alone on mammalian cell models we performed a preliminary toxicity study on a group of C3H mice. […] In a pilot reproductive toxicity study, 12, week old female mice were paired up with 6 week old male mice and checked daily for the presence of a characteristic “plug” in the female vaginal canal as an indication of mating. As soon as the mating has occurred, males were removed and the females were treated weekly with 75 mg/kg s.c. throughout the gestation period and until the pups were weaned off (8 week treatment course). After weaning, treatment of the offspring was initiated at the same 75 mg/kg s.c. weekly dose. Controls were injected s.c. on the same schedule with the carrier (1N saline). Five treated and five control females gave birth to the same average number of pups per litter (n=6) without any detectable toxicities to the other. 3 litters of each treated and control groups survived to continue the study. No pathologies, toxicities nor adverse effects were observed. There are no developmental or teratogenic deficiencies in mice, average weights (21 g) are the same in both groups also.
# [2] = system: RS112 strain of S. cerevisiae; assay: Classical DEL plating assay, radioprotection at 2000Gy irradiation; type: cell-based, Saccharomyces cerevisiae
# Procedure: All DEL assays utilize the established methodology of “recombination” (deletion of the interruption segment and consequent end joining of the adjacent sequences) of a disrupted histidine gene that renders yeast cells exposed to radiation capable of growing on media lacking this amino acid. In the classical DEL assay radiation sensitive RS112 strain of S. cerevisiae is added to the compounds of interest suspended in complete media, incubated for 2 hrs, and irradiated at 2000Gy. The cells are then plated onto full (+13) and lacking histidine (−His) agar plates. After incubation the colonies are scored and recombination events are calculated. The efficacy of the compound is evaluated as a reduced fraction of DEL recombinations in comparison to that of irradiated controls without treatment. Radioprotectors decrease the frequency of such recombination frequencies after radiation exposure.
# A plasmid with an internal fragment of the HIS3 gene, which is responsible for histidine synthesis in yeast, without which cells cannot survive in media lacking histidine, has been integrated at the HIS3 locus, yielding an integrative disruption of the HIS3 gene (Schiestl, R. H., et al., Genetics, 1988. 119(2): p. 237-47). […]
# C3H mice [3] = assay: Recovery of the hematopoietic system after 6 Gy irradiation; type: in vivo, mouse
# From the text: WBC-total white blood cells (K/uL), NE—neutrophils (K/uL), and LY—lymphocytes (K/uL). With 1—tail, Student's t-Student's t-test, WBC and NE, along with monocytes, eosinophils, and basophils (data not shown) are p<0.05.
# RBC— red blood cells (M/uL), HB-hemoglobin (g/dL), and HCT-hematocrit (%).
# OMM lymphocytes = assay: γH2AX assay, cigarette smoke extract induced double strand breaks; type: cell-based, mouse; details: 3 puff/mL cigarette smoke extract, 6 and 24 hrs, Ogg−/− Myh−/− mice
# Procedure: Whole peripheral blood lymphocytes were taken from WT, and OMM double knockout mice (mice deficient in DNA repair pathways observed in smoking-induced lung cancer) and were administered 3 puff/mL of Cigarette smoke extract (CSE) alone or co-incubation of 3 puff/mL Cigarette smoke extract and 10 uM Yel 002 for 3, 6, and 24 hrs and the amount of double stranded breaks were assessed via γH2AX assay. […] Statistical significance was assessed via a 1 way ANOVA test with Tukey's post-hoc analysis. […] Statistical significance was assessed via a 1 way ANOVA test with Tukey's post-hoc analysis. N=3 in each group.
# DEL RS112 tester strain = assay: DEL assay, damage by chemical carcinogen MMS; type: cell-based, Saccharomyces cerevisiae; details: 15 uM, 1 hrs after exposure to MMS
# From the text: A DEL assay, described above, is used for assessing mitigation of damage induced by chemical carcinogens by compounds of invention.
# Tests in this example show administration of Yel001 and Yel002 confers reduction against chemical carcinogen Methyl methanesulfonate (MMS) in vitro.
# Reduction of cytotoxicity and genotoxicity with Yel002 is p<0.007 and p<0.04 restively; p-values for Yel001 are 0.0007 (genotoxicity) and 0.1 for cytotoxicity.
# [4] = system: primary human keratinocytes; assay: Senescence of primary keratinocytes in co-culture; type: cell-based
# DBA/2 Mice = assay: Radiation-induced leukemia model; type: in vivo, mouse
# Procedure: DBA/2 Mice (15/group) were irradiated with ^60Co (3.5 Gy, 0.6 Gy/min) to induce leukemia. One group received no drug, another group of mice were injected s.c. with Yel001 or Yel002 (25 mg/kg) with 5 injections for 5 days. Leukemogenesis was monitored for 90 days. Blood was drawn at days −1, 21, 42, and 63 to monitor for leukemia every 21 days to monitor for leukemia development using WBCs and differentials. This leukemia model takes advantage of non-targeted radiation effects, which are important to the carcinogenic process. This model has a shorter latency period to gamma radiation-induced leukemia (latency to 50% leukemic population: 107 days) than other murine leukemia models such as CBA mouse (399 days: 50% leukemic population). DBA/2 mice were irradiated with 3.5 Gy (^60Co 0.60 Gy/min) and then injected intravenously with (5×10^6) FDC-P1 cells. Animals were then monitored 5×/weekly for 10 weeks-post-injection and then daily after 10 weeks-post-injection until leukemia development and/or euthanasia. After the animal has been determined to be leukemic using hematological parameters, it is euthanized and a necropsy is conducted to definitively determine a conclusive diagnosis of leukemia. Control animals not developing leukemia are assessed at 270 days post experiment initiation. At that time they are euthanized and necropsied.
compound,measurement,setting,value
COc1ccc2cc(-c3nc4ccc(C)cn4c3NCc3ccco3)c(=O)[nH]c2c1 [Yel002],adverse physiological or behavioral effects,C3H mice [1],did not show any adverse physiological nor behavioral adverse effects
same,radioprotector characteristics (genotoxicity and cytotoxicity protection),[2],radioprotector characteristics
same,"recovery of total white blood cells, red blood cells, and platelets",C3H mice [3]; 75 mg/kg s.c. 5×24,increases the recovery
same,recovery of the hematopoietic system,C3H mice [3]; 75 mg/kg s.c. 5×24 hr schedule,promote the recovery of the hematopoietic system
same,double strand breaks / average γH2AX per cell,OMM lymphocytes,reduces the number of DNA double strand breaks
same,double strand breaks / average γH2AX per cell,OMM lymphocytes; listed as YEL 002,significantly reduces cigarette smoke induced double strand breaks; also recorded: significantly decreases the amount of average γH2AX per cell
same,genotoxicity and cytotoxicity by MMS,DEL RS112 tester strain,reduction in genotoxicity and cytotoxicity; also recorded: can be mitigated
same,doubling time of the cells,[4],extended the doubling time
same,progression into senescence,[4]; 5 uM,decreased progression of cells into senescence; also recorded: decreases the progression into senescence
same,first development of leukemia,"DBA/2 Mice; 3.5 Gy, 25 mg/kg s.c., no drug also within 42 days",42 days
same,mice exhibiting leukemia,"DBA/2 Mice; Day 94, 3.5 Gy, 25 mg/kg s.c. 5 injections, irradiated controls 30%",10%
same,leukemia frequency,"DBA/2 Mice; Day 270, irradiated population 90%",40%
same,latency to leukemia development,DBA/2 Mice; FIG. 17,increased latency to leukemia development
same,frequency of radiation induced and/or spontaneous cancer,DBA/2 Mice; FIG. 18,effective for reducing the frequency of radiation induced and spontaneous cancer

# — US9045474B2, “Compounds and compositions for mitigating tissue damage and lethality” (The Regents of the University of California, priority 2010, dated 2015)
